From patent US20050032160A1, “Cell-based therapies for diabetes mellitus and other glucose intolerant states” (priority 2003, published 2005)
“Also recorded” adds a separate entry of the source.

Key:
[1] = test system: rat INS-1 cells; conditions: glucose-responsive clones; correlated with pyruvate cycling; cited from earlier work
[2] = test system: glycerol kinase overexpressing 832/13 cells; assay: Lactate output in glycerol kinase overexpressing 832/13 cells; format: cell-based, rat; conditions: glycerol versus glucose
Description: (§1) FIG. 9 depicts the effect of glycerol kinase overexpression in 832/13 cells on insulin excretion, lactate output and pyruvate cycling.
(§2) In contrast, pyruvate cycling and lactate output are higher in response to glycerol than to glucose.

[3] = test system: glycerol kinase overexpressing 832/13 cells; assay: Pyruvate cycling (13C studies) in glycerol kinase overexpressing 832/13 cells; format: cell-based, rat; conditions: glycerol versus glucose
Description: as §1, §2

[4] = test system: glycerol kinase overexpressing 832/13 cells; assay: Insulin secretion in glycerol kinase overexpressing 832/13 cells; format: cell-based, rat; conditions: glucose versus glycerol
Description: as §1, §2

[5] = test system: β-cell; conditions: non-metabolizable analogs of glucose; cited from earlier work
[6] = test system: 832/13 cells; assay: Insulin secretion assay (radioimmunoassay) in 832/13 cells; format: cell-based, rat; conditions: relative to glucose or pyruvate
Method: The cell line 832/13 was created from INS-1 insulinoma β-cells as described earlier (Hohmeier et al. (2000) Diabetes 49:424-430). Cells were cultured in RPMI-1640 medium containing 11 mM glucose supplemented with 10% fetal bovine serum, 10 mM HEPES, 2 mM glutamine, 1 mM sodium pyruvate and […] β-mercaptoethanol. Media was routinely changed every second day. 832/13 cells were split to a cell density of 20-30% confluence in 12 well plates. At a cell density of 90%, cells were exposed to virus by adding crude extract directly to the growth media. After 16 hours of transduction, virus containing media was removed and the cells were cultured in fresh media in additional 24 hours before secretion assays. Insulin secretion was assayed in HEPES buffered saline solution (HBSS) (114 mM NaCl, 4.7 mM KCl,1.2 mM KH2PO4, 1.16 mM MgSO4, 20 mM HEPES, 2.5 mM CaCl2, 25.5 mM NaHCO3, pH 7.2 containing 0.2% bovine serum albumin (essentially fatty acid free). Cells were washed in 1 ml of HBSS, preincubated in 1.5 ml of HBSS for 2 hour prior to a 2 hour incubation in the presence of secretagogues as indicated in the figures. The insulin levels were determined by radioimmunoassay with the Coat-A-Count kit (ICN Pharmaceuticals, Costa Mesa, Calif.) and lactate output was determined with a Lactate Reagent kit (Sigma, St. Louis, Mo.) according to protocols outlined by the manufacturer.

## O=C(O)Cc1ccccc1 [phenylacetic acid]
[1]
  effect on glucose-stimulated IS: impaired

## OCC(O)CO [glycerol]
[2]
  lactate output: higher
[3]
  pyruvate cycling: higher
[4]
  stimulation of insulin secretion: to the same extent

## CO[C@@H]([C@H](O)[C@H](O)CO)[C@@H](O)C=O [3-O-methyl glucose]
[5]
  stimulation of insulin release: fail to stimulate insulin release

## O=CC[C@@H](O)[C@H](O)[C@H](O)CO [2-deoxy glucose]
[5]
  stimulation of insulin release: fail to stimulate insulin release

## O=C(O)CC(O)C(=O)O (stereo not shown) [malate]
[1]
  effect on glucose-stimulated IS: potentiated

## CC(O)C(=O)O (stereo not shown) [lactate]
[6]; 832/13 cells overexpressing LDHA
  stimulation of insulin secretion as secretagogue: as effective as the other two fuels; also recorded: as effective as glucose or pyruvate
[6]; 832/13 cells without LDH overexpression
  stimulation of insulin secretion as secretagogue: poor secretagogue; also recorded: only a weak stimulator of IS
[6]; 832/13 cells without LDH overexpression, listed as Lactate
  stimulation of insulin secretion as secretagogue: poor secretagogue
